Here are results for 23 compounds from patent publication US20230303570A1, “KINASE INHIBITORS AND USES THEREOF” (ABM Therapeutics Corporation, priority 2020, published 2023).

The experiment has as its target HPK1 (MAP4K1) (Homo sapiens, UniProt Q92918). Description: HPK1 (MAP4K1) kinase Lantha screen assay. In kind it is biochemical. The procedure:
The effect of the compounds on the activity of HPK1 (MAP4K1) kinase were assessed by Lantha screen assay. • 1. 1×kinase buffer was prepared (50 mM HEPES, pH 7.5, 10 mM MgCl2, 4 mM DT • 2. Compound and assay plates preparation: • 2-1) The compound was diluted to 100× of the final desired highest inhibitor concentration in reaction by 100% DMSO. For example, if a compound was tested at […], then a solution at 500 µM in DMSO was prepared in this step. • 2-2) For each tested compound, the compound was transferred in tubes to one well on a 96-well storage plate and serially diluted by transferring […] of 100% DMSO in the next well and so forth for a total of 6 concentrations. • 2-3) 100 μl of 100% DMSO were added to two empty wells to serve as no compound control and no enzyme control in the same 96-well plate. The resulting plate was labeled as the source plate. • 2-4) 40 μl of compound from source plate were transferred to a new 384-well Echo plate as the intermediate plate. 100 nl of each well from the 384-well Echo plate were transferred to a 384-well assay plate in duplicates. For example, A1 of the 384-well Echo plate was transferred to A1 and A2 of the 384-well plate. A2 of the 384-well Echo plate was transferred to A3 and A4 of the 384-well plate, and so on; • 3. Kinase reaction: a solution of MAP4K1 in 1× kinase buffer at 2-fold the final concentration of each reagent in the assay was prepared. 5 μl of kinase solution was added to each well of the assay plate, except for control wells without enzyme (add 5 μl of 1× kinase buffer instead). The plate was then shaken, then incubated at room temperature for 10 min. A substrate solution of Fluorescein-PKC and ATP in 1× kinase reaction buffer at 2-fold of the final concentration of each reagent desired in the assay was prepared. 5 μl of substrate solution was added to each well of the assay plate to start reaction. The plate was shaken, then covered, and incubated at room temperature for 90 minutes.
Kinase detection: detection solution of 2-fold of final concentration in Antibody Dilution Buffer was prepared. 10 μl of detection solution was added to each well of the assay plate to stop the reaction. The mixtures were mixed briefly with Centrifuge and incubated at room temperature 60 minutes before reading on a plate reader for fluorescence. Data was collected on Envision with excitation at 340 nm and emission at 520 nm and 495 nm.

A value given as a limit tells only on which side of the number the result lay.

Chain of HPK1 (MAP4K1) (Q92918 whole entry, species assumed): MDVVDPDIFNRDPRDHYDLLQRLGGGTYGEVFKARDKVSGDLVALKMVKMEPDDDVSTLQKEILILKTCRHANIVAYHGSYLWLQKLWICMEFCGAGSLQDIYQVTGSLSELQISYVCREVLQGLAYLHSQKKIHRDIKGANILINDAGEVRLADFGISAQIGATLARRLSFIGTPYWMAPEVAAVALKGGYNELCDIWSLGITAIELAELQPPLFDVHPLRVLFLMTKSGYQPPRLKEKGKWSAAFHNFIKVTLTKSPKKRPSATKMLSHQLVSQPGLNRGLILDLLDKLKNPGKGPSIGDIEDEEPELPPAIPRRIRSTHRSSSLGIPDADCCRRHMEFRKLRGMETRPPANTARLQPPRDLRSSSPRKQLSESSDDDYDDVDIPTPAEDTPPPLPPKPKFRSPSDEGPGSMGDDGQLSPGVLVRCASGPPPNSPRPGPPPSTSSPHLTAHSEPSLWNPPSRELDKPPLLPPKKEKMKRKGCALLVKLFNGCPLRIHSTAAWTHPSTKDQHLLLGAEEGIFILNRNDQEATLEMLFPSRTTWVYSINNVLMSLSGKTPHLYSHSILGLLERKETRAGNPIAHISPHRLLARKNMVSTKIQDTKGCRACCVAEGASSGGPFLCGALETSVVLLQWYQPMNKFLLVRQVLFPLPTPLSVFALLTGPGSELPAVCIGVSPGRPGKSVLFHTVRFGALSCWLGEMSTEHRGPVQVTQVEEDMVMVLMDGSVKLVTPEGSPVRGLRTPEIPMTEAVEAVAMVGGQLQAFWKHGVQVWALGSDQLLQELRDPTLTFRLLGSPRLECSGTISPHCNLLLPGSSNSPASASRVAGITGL

Usually IC50 stands for the concentration that gives 50% inhibition. High values mean weaker potency, low ones greater potency. For the compound `CNc1ncc2c(n1)N1CCN=C1C(c1cc(NC(=O)c3cccc(C(F)(F)F)c3)ncc1C)=C2` [Compound 190, N-(5-methyl-4-(2-(methylamino)-8,9-dihydroimidazo[1′,2′:1,6]pyrido[2,3-d]pyrimidin-6-yl)pyridin-2-yl)-3-(trifluoromethyl)benzamide], the IC50 is 100 to 10000 nM.

With `Cc1ccc(NC(=O)c2cc(C(F)(F)F)ccn2)cc1C1=Cc2cnc(Nc3ccc(F)cc3)nc2N2CCN=C12` [Compound 227, N-(3-(2-((4-fluorophenyl)amino)-8,9-dihydroimidazo[1′,2′:1,6]pyrido[2,3-d]pyrimidin-6-yl)-4-methylphenyl)-4-(trifluoromethyl)picolinamide], the IC50 is below 100 nM.

`Cc1ccc(NC(=O)c2cc(C(F)(F)F)ccn2)cc1C1=Cc2cnc(Nc3cnccc3O)nc2N2CCN=C12` [Compound 224, N-(3-(2-((4-hydroxypyridin-3-yl)amino)-8,9-dihydroimidazo[1′,2′:1,6]pyrido[2,3-d]pyrimidin-6-yl)-4-methylphenyl)-4-(trifluoromethyl)picolinamide] had a concentration for half-maximal inhibition (IC50) of 100 to 10000 nM.

Compound `CNc1ncc2c(n1)N1CCN=C1C(c1cc(NC(=O)c3cc(C(F)(F)F)cc(-n4cnc(C)c4)n3)ccc1C)=C2` [Compound 157, 6-(4-methyl-1H-imidazol-1-yl)-N-(4-methyl-3-(2-(methylamino)-8,9-dihydroimidazo[1′,2′:1,6]pyrido[2,3-d]pyrimidin-6-yl)phenyl)-4-(trifluoromethyl)picolinamide] had an IC50 of 100 to 10000 nM.

`CNc1ncc2c(n1)N1CCN=C1C(c1cc(NC(=O)c3cc(C(F)(F)F)ncn3)ccc1C)=C2` [Compound 151, N-(4-methyl-3-(2-(methylamino)-8,9-dihydroimidazo[1′,2′:1,6]pyrido[2,3-d]pyrimidin-6-yl)phenyl)-6-(trifluoromethyl)pyrimidine-4-carboxamide] registered an IC50 of 100 to 10000 nM.

With `CNc1ncc2c(n1)N1CCN=C1C(c1cc(NC(=O)c3cncc(C(F)(F)F)n3)ccc1C)=C2` [Compound 146, N-(4-methyl-3-(2-(methylamino)-8,9-dihydroimidazo[1′,2′:1,6]pyrido[2,3-d]pyrimidin-6-yl)phenyl)-6-(trifluoromethyl)pyrazine-2-carboxamide], the IC50 is above 10000 nM.

Regarding `CNc1ncc2c(n1)N1CCN=C1C(c1cc(NC(=O)c3ccnc(C(F)(F)F)n3)ccc1C)=C2` [Compound 147, N-(4-methyl-3-(2-(methylamino)-8,9-dihydroimidazo[1′,2′:1,6]pyrido[2,3-d]pyrimidin-6-yl)phenyl)-2-(trifluoromethyl)pyrimidine-4-carboxamide], the IC50 is above 10000 nM.

As to `CC(=O)Nc1ncc2c(n1)N1CCN=C1C(c1cc(NC(=O)c3cc(C(F)(F)F)ccn3)ccc1C)=C2` [Compound 118, N-(3-(2-acetamido-8,9-dihydroimidazo[1′,2′:1,6]pyrido[2,3-d]pyrimidin-6-yl)-4-methylphenyl)-4-(trifluoromethyl)picolinamide], the IC50 was in the range of 100 to 10000 nM.

For the compound `Cc1ccc(Nc2ncc3c(n2)N2CCN=C2C(c2cc(NC(=O)c4cc(C(F)(F)F)ccn4)ccc2C)=C3)cc1F` [Compound 228, N-(3-(2-((3-fluoro-4-methylphenyl)amino)-8,9-dihydroimidazo[1′,2′:1,6]pyrido[2,3-d]pyrimidin-6-yl)-4-methylphenyl)-4-(trifluoromethyl)picolinamide], the half-inhibitory concentration (IC50) is below 100 nM.

As for `Cc1ccc(NC(=O)c2cc(C(F)(F)F)ccn2)cc1C1=Cc2cnc(Nc3ncccc3F)nc2N2CCN=C12` [Compound 220, N-(3-(2-((3-fluoropyridin-2-yl)amino)-8,9-dihydroimidazo[1′,2′:1,6]pyrido[2,3-d]pyrimidin-6-yl)-4-methylphenyl)-4-(trifluoromethyl)picolinamide], the IC50 is 100 to 10000 nM.

Turning to `CNc1ncc2c(n1)N1CCN=C1C(c1cc(NC(=O)c3cccc(C(C)(C)O)c3)ccc1C)=C2` [Compound 170, 3-(2-hydroxypropan-2-yl)-N-(4-methyl-3-(2-(methylamino)-8,9-dihydroimidazo[1′,2′:1,6]pyrido[2,3-d]pyrimidin-6-yl)phenyl)benzamide], the half-inhibitory concentration (IC50) is below 100 nM.

For `CNc1ncc2c(n1)N1CCN=C1C(c1cc(NC(=O)c3cc(C(C)(C)C#N)ccn3)c(F)cc1C)=C2` [Compound 165, 4-(2-cyanopropan-2-yl)-N-(2-fluoro-4-methyl-5-(2-(methylamino)-8,9-dihydroimidazo[1′,2′:1,6]pyrido[2,3-d]pyrimidin-6-yl)phenyl)picolinamide], the IC50 is below 100 nM.

Turning to `CNc1ncc2c(n1)N1CCN=C1C(c1cc(NC(=O)c3cc(C(F)(F)F)c[nH]c3=O)ccc1C)=C2` [Compound 153, N-(4-methyl-3-(2-(methylamino)-8,9-dihydroimidazo[1′,2′:1,6]pyrido[2,3-d]pyrimidin-6-yl)phenyl)-2-oxo-5-(trifluoromethyl)-1,2-dihydropyridine-3-carboxamide], the concentration for half-maximal inhibition (IC50) fell in the range of 100 to 10000 nM.

`COc1ncccc1Nc1ncc2c(n1)N1CCN=C1C(c1cc(NC(=O)c3cc(C(F)(F)F)ccn3)ccc1C)=C2` [Compound 222, N-(3-(2-((2-methoxypyridin-3-yl)amino)-8,9-dihydroimidazo[1′,2′:1,6]pyrido[2,3-d]pyrimidin-6-yl)-4-methylphenyl)-4-(trifluoromethyl)picolinamide] had a half-inhibitory concentration (IC50) below 100 nM.

For `CNc1ncc2c(n1)N1CCN=C1C(c1cc(NS(=O)(=O)c3cccc(C(F)(F)F)c3)ccc1C)=C2` [Compound 283, N-(4-methyl-3-(2-(methylamino)-8,9-dihydroimidazo[1′,2′:1,6]pyrido[2,3-d]pyrimidin-6-yl)phenyl)-3-(trifluoromethyl)benzenesulfonamide], the IC50 was above 10000 nM.

Consider `Clc1ccccc1C1=Cc2cnc(Nc3ccc(N4CCOCC4)nc3)nc2N2CCN=C12` [Compound 100, 6-(2-chlorophenyl)-N-(6-morpholinopyridin-3-yl)-8,9-dihydroimidazo[1′,2′:1,6]pyrido[2,3-d]pyrimidin-2-amine], for which the IC50 is 100 to 10000 nM.

`CNc1ncc2c(n1)N1C(=NCC13CCCC3)C(c1cc(NC(=O)c3cc(C(F)(F)F)ccn3)ccc1C)=C2` [Compound 131, N-(4-methyl-3-(2′-(methylamino)-8′H-spiro[cyclopentane-1,9′-imidazo[1′,2′:1,6]pyrido[2,3-d]pyrimidin]-6′-yl)phenyl)-4-(trifluoromethyl)picolinamide] gave an IC50 below 100 nM.

In the case of `CNc1nc(C)c2c(n1)N1CCN=C1C(c1cc(NC(=O)c3cc(C(F)(F)F)ccn3)ccc1Cl)=C2` [Compound 123, N-(4-chloro-3-(4-methyl-2-(methylamino)-8,9-dihydroimidazo[1′,2′:1,6]pyrido[2,3-d]pyrimidin-6-yl)phenyl)-4-(trifluoromethyl)picolinamide], the concentration for half-maximal inhibition (IC50) is above 10000 nM.

`Cc1ccc(NC(=O)c2cc(C(F)(F)F)ccn2)cc1C1=Cc2cnc(Nc3ccncc3)nc2N2CCN=C12` [Compound 214, N-(4-methyl-3-(2-(pyridin-4-ylamino)-8,9-dihydroimidazo[1′,2′:1,6]pyrido[2,3-d]pyrimidin-6-yl)phenyl)-4-(trifluoromethyl)picolinamide] yielded a 50% inhibitory concentration (IC50) below 100 nM.

Compound `CNc1ncc2c(n1)N1C[C@H](C)N=C1C(c1cc(NC(=O)c3cc(C(F)(F)F)ccn3)ccc1C)=C2` [Compound 126, (S)—N-(4-methyl-3-(8-methyl-2-(methylamino)-8,9-dihydroimidazo[1′,2′:1,6]pyrido[2,3-d]pyrimidin-6-yl)phenyl)-4-(trifluoromethyl)picolinamide] showed a 50% inhibitory concentration (IC50) of 100 to 10000 nM.

Compound `CNc1ncc2c(n1)N1CCN=C1C(c1cc(NC(=O)c3cc(C(F)(F)F)ccn3)c(F)cc1C)=C2` [Compound 139, N-(2-fluoro-4-methyl-5-(2-(methylamino)-8,9-dihydroimidazo[1′,2′:1,6]pyrido[2,3-d]pyrimidin-6-yl)phenyl)-4-(trifluoromethyl)picolinamide] displayed an IC50 below 100 nM.

In the case of `Cc1ccncc1Nc1ncc2c(n1)N1CCN=C1C(c1cc(NC(=O)c3cc(C(F)(F)F)ccn3)ccc1C)=C2` [Compound 210, N-(4-methyl-3-(2-((4-methylpyridin-3-yl)amino)-8,9-dihydroimidazo[1′,2′:1,6]pyrido[2,3-d]pyrimidin-6-yl)phenyl)-4-(trifluoromethyl)picolinamide], the IC50 is below 100 nM.

Consider `Cc1cc(F)c(NC(=O)C2(C(=O)Nc3ccc(F)cc3)CC2)cc1C1=Cc2cnc(NC3COC3)nc2N2CCN=C12` [Compound 344, N-(2-fluoro-4-methyl-5-(2-(oxetan-3-ylamino)-8,9-dihydroimidazo[1′,2′:1,6]pyrido[2,3-d]pyrimidin-6-yl)phenyl)-N-(4-fluorophenyl)cyclopropane-1,1-dicarboxamide], for which the IC50 was above 10000 nM.
